Assay results as given in PMC6030096, “Synergy of Physico-chemical and Biological Experiments for Developing a Cyclooxygenase-2 Inhibitor” (Scientific Reports, 2018).

Experiments:
[1] = molecular target: T1, 5-LOX (Soybean lipoxygenase) (Glycine max, UniProt P08170); test: Lipoxygenase inhibitory activity assay; assay type: biochemical
T1 construct: purchased Cayman Chemical Co. 760700
T1 sequence (P08170 1-839): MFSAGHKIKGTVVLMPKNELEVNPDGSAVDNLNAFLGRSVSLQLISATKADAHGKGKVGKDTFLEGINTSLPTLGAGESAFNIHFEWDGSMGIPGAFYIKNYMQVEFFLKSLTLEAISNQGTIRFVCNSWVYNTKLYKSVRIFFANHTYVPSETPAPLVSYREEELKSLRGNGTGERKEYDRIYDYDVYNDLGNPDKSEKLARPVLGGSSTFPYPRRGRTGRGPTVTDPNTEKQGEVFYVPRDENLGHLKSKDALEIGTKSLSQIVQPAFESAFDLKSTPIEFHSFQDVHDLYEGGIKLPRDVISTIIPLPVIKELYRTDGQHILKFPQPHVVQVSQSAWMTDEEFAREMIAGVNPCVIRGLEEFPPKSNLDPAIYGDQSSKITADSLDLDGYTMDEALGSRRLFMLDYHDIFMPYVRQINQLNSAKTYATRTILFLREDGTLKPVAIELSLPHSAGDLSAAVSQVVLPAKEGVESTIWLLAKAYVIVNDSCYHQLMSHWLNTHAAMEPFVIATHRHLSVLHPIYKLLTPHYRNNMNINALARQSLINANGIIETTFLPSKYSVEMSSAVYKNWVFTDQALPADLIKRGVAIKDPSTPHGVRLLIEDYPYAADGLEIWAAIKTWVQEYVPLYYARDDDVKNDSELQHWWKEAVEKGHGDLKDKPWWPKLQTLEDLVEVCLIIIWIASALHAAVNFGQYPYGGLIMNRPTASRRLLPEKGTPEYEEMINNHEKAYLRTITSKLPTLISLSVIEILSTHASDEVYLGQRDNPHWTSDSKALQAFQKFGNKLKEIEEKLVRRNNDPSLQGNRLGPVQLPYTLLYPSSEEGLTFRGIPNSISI
Method: 10 µL of the compound of each concentration was mixed with 90 µL 5-LOX (Soybean lipoxygenase in assay buffer) in the specified wells of the 96-well plate. Two wells containing assay buffer and AA acted as blanks whereas four wells, each carrying enzyme and AA, were positive controls. 10 µL AA was added to each test well and the plate was shaken for 5 min. Chromogen (100 µL) was added to each well and the plate was again shaken for 5 min. The absorbance of each well at 490 nm was recorded on microplate scanning spectrophotometer. As per the protocol given with the assay kit, the 5-LOX inhibitory activity for each compound at each concentration was determined using the mean of the two values (duplicate experiments) with deviation <5%.

[2] = molecular target: T2, COX-1 (Ovis aries, UniProt P05979); test: Isothermal titration calorimetry with COX-1; assay type: binding; details: ITC
T2 construct: purchased Cayman Chemical Co. 560131
T2 sequence (P05979 25-600): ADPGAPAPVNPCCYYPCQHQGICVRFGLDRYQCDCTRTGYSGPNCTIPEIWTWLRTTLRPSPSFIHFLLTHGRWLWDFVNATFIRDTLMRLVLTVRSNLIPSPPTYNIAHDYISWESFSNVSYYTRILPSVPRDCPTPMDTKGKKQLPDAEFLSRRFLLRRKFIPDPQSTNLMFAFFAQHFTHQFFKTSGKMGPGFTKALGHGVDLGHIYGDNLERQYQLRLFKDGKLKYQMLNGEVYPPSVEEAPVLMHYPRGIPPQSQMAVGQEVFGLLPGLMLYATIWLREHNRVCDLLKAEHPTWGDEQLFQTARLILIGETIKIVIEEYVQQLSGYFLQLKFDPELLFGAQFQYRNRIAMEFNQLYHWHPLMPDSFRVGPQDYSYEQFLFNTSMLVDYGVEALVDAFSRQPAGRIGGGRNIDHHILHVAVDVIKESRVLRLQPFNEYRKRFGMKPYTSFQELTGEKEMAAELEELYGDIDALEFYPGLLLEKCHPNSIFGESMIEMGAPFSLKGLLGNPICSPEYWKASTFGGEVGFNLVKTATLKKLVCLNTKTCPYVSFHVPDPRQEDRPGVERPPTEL
Method: 100 µM solution of the compound in HPLC grade DMSO and Tris-HCl buffer (1:9) (pH 7.4) was prepared. 5 µL of enzyme was diluted with 500 µL Tris-HCl buffer. 19 consecutive injections of 2 µL each at 120 s interval were made to the enzyme solution taken in the sample cell. The heat change in the cell was determined. The control titrations for determining the background heat (that was subtracted from the main experiment) were performed by taking buffer solution in the cell and making successive additions of the titrant. The titration heat profiles and the binding parameters were read with Microcal software origin 7.0.

[3] = molecular target: T3, COX-1 (Homo sapiens, UniProt P23219); test: Human whole blood assay for COX-1 (A23187 stimulated TxB2); assay type: cell-based
T3 construct: endogenous in cells; host or cells: human whole blood (heparinized, venipuncture)
T3 sequence (P23219 24-599): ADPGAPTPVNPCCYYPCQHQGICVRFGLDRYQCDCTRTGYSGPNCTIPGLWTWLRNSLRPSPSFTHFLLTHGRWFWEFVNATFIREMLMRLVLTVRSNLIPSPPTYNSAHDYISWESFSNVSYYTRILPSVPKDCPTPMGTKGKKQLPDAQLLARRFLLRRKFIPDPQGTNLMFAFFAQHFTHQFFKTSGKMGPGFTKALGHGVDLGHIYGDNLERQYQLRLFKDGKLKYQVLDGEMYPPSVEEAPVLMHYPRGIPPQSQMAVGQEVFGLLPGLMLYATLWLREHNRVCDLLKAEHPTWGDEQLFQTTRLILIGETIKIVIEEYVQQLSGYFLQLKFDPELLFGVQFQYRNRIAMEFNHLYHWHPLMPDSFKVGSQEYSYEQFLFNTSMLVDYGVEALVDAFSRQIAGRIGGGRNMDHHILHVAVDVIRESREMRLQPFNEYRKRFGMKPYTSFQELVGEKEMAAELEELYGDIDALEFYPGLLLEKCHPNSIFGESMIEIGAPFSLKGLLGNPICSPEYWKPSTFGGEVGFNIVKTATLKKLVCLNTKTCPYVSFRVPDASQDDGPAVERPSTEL
Source text: (§1) The use of human blood for the whole blood assay was duly approved by the institutional ethical committee of the University for human subjects. Production of prostaglandin PGE2 during lipopolysaccharide (LPS) stimulated whole blood was used to quantify COX-2 inhibitory activity whereas calcium ionophore (A23187) stimulated thromboxane (TxB2) production was used to measure COX-1 inhibitory activity of the compounds.
Approval for the use of human blood was taken from the institutional ethical committee of Guru Nanak Dev University Amritsar and informed consent was obtained from the subject[32],[33]. All experiments were performed in accordance with the relevant guidelines and regulations. By venipuncture, the blood sample was collected in heparinized tubes. […] Each sample in duplicate was assayed for TxB2 (the breakdown product of TxA2) using TXB2 Express ELISA kit (Cayman Chemicals, Ann Arbor, MI) by the reported protocol.

[4] = system: carrageenan-induced inflammation in rat; test: Carrageenan induced paw inflammation (pretreatment)
Method: In-vivo biological experiments were performed on male wistar rat (250–300 g). […] The animals were given free supply of food and water. The use of animals for the biological studies was duly permitted by the institutional animal ethical committee (IAEC) of the University. […] All the doses were administered intraperitoneally.
The paw thickness of the animals was measured with vernier callipre at 1 h intervals up to the 5th hour and compared with the control.
For anti-inflammatory activity, carageenan induced paw edema model with three groups of animals, 5 in each, were used[22]. All the drugs were administered intraperitoneally.

[5] = molecular target: T4, COX-2 (Homo sapiens, UniProt P35354); test: Human whole blood assay for COX-2 (LPS stimulated PGE2); assay type: cell-based; set-up: endogenous in cells; host or cells: human whole blood, aspirin-pretreated, LPS-stimulated
T4 sequence (P35354 18-604): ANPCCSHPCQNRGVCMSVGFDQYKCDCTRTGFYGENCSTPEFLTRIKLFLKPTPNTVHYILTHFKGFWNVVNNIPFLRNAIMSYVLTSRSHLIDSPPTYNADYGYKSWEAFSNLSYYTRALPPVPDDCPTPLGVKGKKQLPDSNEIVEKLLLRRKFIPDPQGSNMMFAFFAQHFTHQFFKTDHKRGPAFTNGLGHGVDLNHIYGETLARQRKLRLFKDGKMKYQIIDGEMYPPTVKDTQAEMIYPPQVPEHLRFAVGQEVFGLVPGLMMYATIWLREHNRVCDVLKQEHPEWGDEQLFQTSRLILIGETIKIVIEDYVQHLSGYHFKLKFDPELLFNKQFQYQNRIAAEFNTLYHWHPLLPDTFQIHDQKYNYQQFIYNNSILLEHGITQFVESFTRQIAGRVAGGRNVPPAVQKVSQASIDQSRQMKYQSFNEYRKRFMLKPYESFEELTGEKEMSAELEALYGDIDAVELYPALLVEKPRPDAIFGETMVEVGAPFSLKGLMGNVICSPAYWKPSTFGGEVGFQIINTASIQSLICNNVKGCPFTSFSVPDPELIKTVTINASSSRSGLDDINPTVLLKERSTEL
Method: as §1
COX-2 assay was performed by inactivating COX-1 with 50 µL aspirin (10 µg/mL) per 400 µL of blood sample.

[6] = molecular target: T2, COX-1; details: previously reported compounds 1 and 2; cited from earlier work
[7] = system: carrageenan induced paw edema; test: Carrageenan induced paw edema, effect on pre-existing inflammation; assay type: in vivo, rat; details: 10 mg kg^−1 ip 60 min after carrageenan
Method: Paw thickness (mm) was used as an index of inflammation and measured at 30 min, 1 h, 2 h, 3 h, 4 h, 5 h, 6 h, 8 h, and 24 h after the carrageenan injection.
Paw thickness (mm) was used as index of inflammation and measured at 30 min, 1 h, 2 h, 3 h, 4 h, 5 h, 6 h, 8 h, and 24 h after the carrageenan injection.

[8] = system: acetic acid induced writhings in rat; test: Acetic acid induced writhing (analgesic activity); details: ip
Method: In-vivo biological experiments were performed on male wistar rat (250–300 g). […] The animals were given free supply of food and water. […] Acetic acid induced algesia model and carragennan induced inflammatory model were used for these studies. […] All the doses were administered intraperitoneally.
Analgesic activity was studied using acetic acid induced writhing. Animals in 13 groups, each consisting of 5 animals, were used. Intraperitoneal administration of 0.6% acetic acid induced abdominal writhings that were characterized by arching of back, extension of hind limbs and contraction of abdominal musculature[36]. […] All the drugs were administered intraperitoneally.

O=C1NC(=O)C(=Cc2cn(C[C@H](O)Cn3c4ccccc4c(=O)c4ccccc43)c3ccccc23)C(=O)N1 [(S)-3a]
IC50 [1]: 0.2 ± 0.015 µM | TΔS [2]: -0.829 kcal/mol | ΔG [2]: -4.304 kcal/mol | ΔH [2]: -5.134 kcal/mol | effect on ionophore stimulated TxB2 production ([3]; 1 µM): had no effect | Production of TXB2, +Ca^2+ Ionophore ([3]; final conc 1 µM, A23187 50 µM): 1.95 ± 0.01 ng/mL | reduction of carrageenan induced inflammation ([4]; 10 mg kg^−1): 25% | effect on paw inflammation compared with indomethacin ([4]; end of 4th and 5th hour): comparable to that of indomethacin | effect on carageenan induced paw inflammation (paw thickness) ([4]; ip 30 min before carageenan, measured up to 5th hour): Significant decrease | effect on LPS stimulated PGE2 production ([5]; 1 µM): inhibited LPS stimulated PGE2 production | Production of PGE2, +LPS ([5]; final conc 1 µM, LPS 10 µg mL^−1): 0.93 ± 0.1 ng/mL

CC1=NN(c2cccc(Cl)c2)C(=O)C1=Cc1cn(CCCOc2cc(O)c3c(=O)cc(-c4ccccc4)oc3c2)c2ccccc12 [Compound 1]
IC50 [6]: 118 ± 5.5 µM

COc1ccc2c(c1)c(CC(=O)O)c(C)n2C(=O)c1ccc(Cl)cc1 [Indomethacin, reference compound]
effect on pre-existing paw edema (paw thickness) ([7]; after 5 h of treatment): decrease paw edema | duration of decrease in paw edema ([7]; after 24 h of treatment): sustained even after 24 h | effect on number of acetic acid induced writhing vs control [8]: significantly decreased
